According to ChEMBL document CHEMBL3046232, “Synthesis, pharmacological evaluation and molecular docking studies of indanone derivatives” (2012):

Key:
Format in all cases: functional
Bacillus subtilis [1] = test: Antimicrobial activity against at Bacillus subtilis at 50 ug/ml by cup plate method; details: read-out: IZ
Penicillium chrysogenum [2] = test: Antimicrobial activity against at Penicillium chrysogenum at 25 ug/ml by cup-plate method; details: read-out: IZ
Rattus norvegicus [3] = test: Anti-inflammatory activity in Rattus norvegicus Wistar albino (rat) assessed as protection against carrageenan-induced paw edema at 50 mg/kg after 90 min
Aspergillus niger [4] = test: Antimicrobial activity against at Aspergillus niger at 100 ug/ml by cup-plate method; details: read-out: IZ
Rattus norvegicus [5] = test: Anti-inflammatory activity in Rattus norvegicus Wistar albino (rat) assessed as protection against carrageenan-induced paw edema at 50 mg/kg after 30 min
Aspergillus niger [6] = test: Antimicrobial activity against at Aspergillus niger at 25 ug/ml by cup-plate method; details: read-out: IZ
Bacillus subtilis [7] = test: Antimicrobial activity against at Bacillus subtilis at 100 ug/ml by cup plate method; details: read-out: IZ
Penicillium chrysogenum [8] = test: Antimicrobial activity against at Penicillium chrysogenum at 100 ug/ml by cup-plate method; details: read-out: IZ
Escherichia coli [9] = test: Antimicrobial activity against at Escherichia coli at 25 ug/ml by cup-plate method; details: read-out: IZ
Escherichia coli [10] = test: Antimicrobial activity against at Escherichia coli at 100 ug/ml by cup-plate method; details: read-out: IZ
Aspergillus niger [11] = test: Antimicrobial activity against at Aspergillus niger at 50 ug/ml by cup-plate method; details: read-out: IZ
Escherichia coli [12] = test: Antimicrobial activity against at Escherichia coli at 50 ug/ml by cup-plate method; details: read-out: IZ
Mus musculus [13] = test: Analgesic activity in Mus musculus Swiss albino (mouse) assessed as increase in reaction time of paw licking or jump response at 50 mg/kg, po after 60 min by hot plate method
Rattus norvegicus [14] = test: Anti-inflammatory activity in Rattus norvegicus Wistar albino (rat) assessed as protection against carrageenan-induced paw edema at 50 mg/kg after 60 min
Rattus norvegicus [15] = test: Anti-inflammatory activity in Rattus norvegicus Wistar albino (rat) assessed as protection against carrageenan-induced paw edema at 50 mg/kg after 2 hr
Penicillium chrysogenum [16] = test: Antimicrobial activity against at Penicillium chrysogenum at 50 ug/ml by cup-plate method; details: read-out: IZ
Rattus norvegicus [17] = test: Anti-inflammatory activity in Rattus norvegicus Wistar albino (rat) assessed as protection against carrageenan-induced paw edema at 50 mg/kg after 3 hr
Mus musculus [18] = test: Analgesic activity in Mus musculus Swiss albino (mouse) assessed as increase in reaction time of paw licking or jump response at 50 mg/kg, po after 90 min by hot plate method
Mus musculus [19] = test: Analgesic activity in Mus musculus Swiss albino (mouse) assessed as increase in reaction time of paw licking or jump response at 50 mg/kg, po after 30 min by hot plate method
Bacillus subtilis [20] = test: Antimicrobial activity against at Bacillus subtilis at 25 ug/ml by cup plate method; details: read-out: IZ

| Compound | zone of inhibition at 50 µg/mL (Bacillus subtilis [1]) [mm] | zone of inhibition at 25 µg/mL (Penicillium chrysogenum [2]) [mm] | Activity (Rattus norvegicus [3]) [%] | zone of inhibition at 100 µg/mL (Aspergillus niger [4]) [mm] | Activity (Rattus norvegicus [5]) [%] | zone of inhibition at 25 µg/mL (Aspergillus niger [6]) [mm] | zone of inhibition at 100 µg/mL (Bacillus subtilis [7]) [mm] | zone of inhibition at 100 µg/mL (Penicillium chrysogenum [8]) [mm] | zone of inhibition at 25 µg/mL (Escherichia coli [9]) [mm] | zone of inhibition at 100 µg/mL (Escherichia coli [10]) [mm] | zone of inhibition at 50 µg/mL (Aspergillus niger [11]) [mm] | zone of inhibition at 50 µg/mL (Escherichia coli [12]) [mm] | Activity (Mus musculus [13]) [%] | Activity (Rattus norvegicus [14]) [%] | Activity (Rattus norvegicus [15]) [%] | zone of inhibition at 50 µg/mL (Penicillium chrysogenum [16]) [mm] | Activity (Rattus norvegicus [17]) [%] | Activity (Mus musculus [18]) [%] | Activity (Mus musculus [19]) [%] | zone of inhibition at 25 µg/mL (Bacillus subtilis [20]) [mm] |
| --- | --- | --- | --- | --- | --- | --- | --- | --- | --- | --- | --- | --- | --- | --- | --- | --- | --- | --- | --- | --- |
| COc1ccc(-c2onc3c2C(=O)c2ccccc2-3)cc1OC | 12.8 | 4.75 | 8.12 | 17.8 | 6.21 | 6.5 | 19.7 | 13.8 | 7.25 | 24.5 | 13.8 | 11 | 19.02 | 7.21 | 6.52 | 5.25 | 7.32 | 23.54 | 12.61 |  |
| O=C1c2ccccc2-c2noc(-c3cccc([N+](=O)[O-])c3)c21 | 7 |  | 5.52 | 17 | 2.02 | 4.25 | 13.5 | 13.5 |  | 17 | 13.2 | 13.2 | 10.38 | 3.99 | 7.44 | 7 | 6.44 | 14.2 | 5.44 | 4 |
| O=C1c2ccccc2-c2noc(-c3ccc(Cl)cc3)c21 | 11.5 |  | 12.16 | 13 | 6.31 | 5.5 | 18.5 | 12 | 6 | 16 | 9.75 | 6.75 | 12.8 | 12 | 15.11 | 8.5 | 16.21 | 16.1 | 7.18 | 5.25 |
| Cc1ccc(-c2onc3c2C(=O)c2ccccc2-3)cc1 | 10.5 |  | 45.72 | 28 | 35.29 | 10.5 | 15 | 15.5 | 10 | 25.3 | 18.5 | 15 | 23.12 | 43.66 | 36.45 | 6.75 | 30.33 | 27.01 | 15.55 | 6.77 |
| O=C1c2ccccc2-c2noc(-c3ccc(O)cc3)c21 | 11.2 | 4.35 | 42.6 | 21 | 31.16 | 6 | 17.5 | 14 | 4.75 | 13.8 | 13 | 5.25 | 23.74 | 41.46 | 36.33 | 6 | 33.45 | 27.87 | 16.52 |  |
| CN(C)c1ccc(-c2onc3c2C(=O)c2ccccc2-3)cc1 | 4.75 | 4 | 14.23 | 13 | 7.11 | 5.5 | 12 | 12.2 |  | 17.2 | 7.5 | 12 | 5.65 | 8.45 | 19.21 | 7.25 | 20.1 | 9.93 | 5.02 |  |
| COc1ccc(-c2onc3c2C(=O)c2ccccc2-3)cc1 | 5.5 | 5.35 | 16.38 | 17 | 7.71 | 7.25 | 14.8 | 19.6 | 5.5 | 20.2 | 11.7 |  | 5.13 | 12.21 | 12.32 | 12.7 | 9.21 | 8.04 | 3.06 |  |
| COc1cc(-c2onc3c2C(=O)c2ccccc2-3)cc(OC)c1OC | 11.5 | 5.5 | 29.14 | 19.2 | 17.21 | 6.49 | 18.8 | 19 |  | 27.8 | 11.2 | 16.5 | 9.75 | 22.38 | 29.15 | 9.25 | 26.32 | 12.54 | 4.48 | 5.25 |
| CC1(C)S[C@@H]2[C@H](NC(=O)[C@H](N)c3ccccc3)C(=O)N2[C@H]1C(=O)O [AMPICILLIN] | 12.1 |  |  |  |  |  | 21.1 |  | 11.2 | 32.7 |  | 20.4 |  |  |  |  |  |  |  | 9.1 |
| OC(Cn1cncn1)(Cn1cncn1)c1ccc(F)cc1F [FLUCONAZOLE] |  | 7.32 |  | 31.8 |  | 11.9 |  | 21.2 |  |  | 21.7 |  |  |  |  | 14.2 |  |  |  |  |
| COc1ccc2c(c1)c(CC(=O)O)c(C)n2C(=O)c1ccc(Cl)cc1 [INDOMETHACIN] |  |  | 21.12 |  | 28.56 |  |  |  |  |  |  |  |  | 23.22 | 20.15 |  | 20.22 |  |  |  |
